These results are taken from patent publication US10208016B2, “1-sulfonyl piperidine derivatives as modulators of prokineticin receptors” (TAKEDA PHARMACEUTICAL COMPANY LIMITED, priority 2013, dated 2019).

This assay concerns the target human PKR1 receptors (Homo sapiens (Human), UniProt Q8TCW9). In words: PKR1 antagonist calcium mobilisation assay (FLIPR), block of PK1-mediated intracellular calcium release. It is filed as cell-based. Conditions: RBL2H3 cells expressing human PKR1; stimulation with PK1 at EC80; calcium fluorescence. The method, then:
Prokineticin receptor 1 (PKR1) antagonists may be functionally assessed by measurement of change in intracellular calcium levels induced by Gq mediated increase in inositol triphosphate (IP3) levels. The ability of a compound to block the intracellular release of calcium mediated by PK1 in RBL2H3 cells expressing human PKR1 receptors is determined as a measure of the compound's antagonist activity in vitro.
Approximately 10,000 cells per assay well are seeded in normal culture medium in a 384 well plate (Corning). Twenty-four hours after seeding, the cells are loaded with a calcium sensitive fluorescent dye by replacing the culture medium with assay buffer (1× Hanks buffered saline, 25 mM HEPES, 0.1% w/v fatty acid free BSA (bovine serum albumin), pH 7.4) containing 1 mM probenecid and 1× Calcium 5 Reagent (Molecular Devices). Cells are incubated at 37° C. for 1 hour to allow for dye uptake.
To test for antagonist activity, test compounds at a final concentration range between 0.32 nM-10 μM (diluted in assay buffer) are added to the assay wells and allowed to incubate for 10 minutes prior to stimulation with PK1. After incubation with test compounds the assay plate is placed in a FLIPR Tetra (Molecular Devices) and PK1 (diluted in assay buffer) is added at the determined EC80 concentration (final). Ligand-dependent changes in intracellular calcium levels are determined by measuring changes in fluorescence of the dye at […] following excitation at 485 nm.

human PKR1 receptors, sequence (Q8TCW9 whole entry): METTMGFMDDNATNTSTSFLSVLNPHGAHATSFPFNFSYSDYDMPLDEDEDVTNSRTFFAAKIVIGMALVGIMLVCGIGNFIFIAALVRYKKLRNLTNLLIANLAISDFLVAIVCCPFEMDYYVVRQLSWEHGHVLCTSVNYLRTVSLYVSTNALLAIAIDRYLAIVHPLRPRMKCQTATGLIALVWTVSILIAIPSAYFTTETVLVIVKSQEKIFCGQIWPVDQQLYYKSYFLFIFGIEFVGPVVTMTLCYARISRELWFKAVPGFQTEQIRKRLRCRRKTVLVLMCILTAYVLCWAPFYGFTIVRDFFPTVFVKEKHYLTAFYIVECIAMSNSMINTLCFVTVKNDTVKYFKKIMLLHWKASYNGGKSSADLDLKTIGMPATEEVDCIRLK

On to `Cc1[nH]nc(C2CC2)c1S(=O)(=O)N1CCC(Cc2ccc(Cl)c(F)c2)CC1` [Example 1, 4-(4-Chloro-3-fluorobenzyl)-1-((3-cyclopropyl-5-methyl-1H-pyrazol-4-yl)sulfonyl)piperidine], for which the IC50 is 1370 nM.

As for `COC(=O)C(=C1CCN(S(=O)(=O)c2c(C)n[nH]c2C)CC1)c1ccc(Cl)cc1` [Example 2, Methyl 2-(4-Chlorophenyl)-2-(1-((3,5-dimethyl-1H-pyrazol-4-yl)sulfonyl)piperidin-4-ylidene)acetate], the IC50 worked out at 3100 nM.

Regarding `Cc1n[nH]c(C)c1S(=O)(=O)N1CCC(=C(C#N)c2ccc(Cl)cc2)CC1` [Example 3, 2-(4-Chlorophenyl)-2-(1-((3,5-dimethyl-1H-pyrazol-4-yl)sulfonyl)piperidin-4-ylidene)acetonitrile], the IC50 came to 40 nM.

In the case of `Cc1n[nH]c(C)c1S(=O)(=O)N1CCC(=C(C#N)c2c(F)cccc2F)CC1` [Example 4, 2-(2,6-Difluorophenyl)-2-(1-((3,5-dimethyl-1H-pyrazol-4-yl)sulfonyl)piperidin-4-ylidene)acetonitrile], the IC50 worked out at 3680 nM.

Turning to `Cc1n[nH]c(C)c1S(=O)(=O)N1CCC(=C(C#N)c2ccc(Cl)cc2F)CC1` [Example 5, 2-(4-Chloro-2-fluorophenyl)-2-(1-((3,5-dimethyl-1H-pyrazol-4-yl)sulfonyl)piperidin-4-ylidene)acetonitrile], the IC50 was 180 nM.

Consider `CCc1n[nH]c(CC)c1S(=O)(=O)N1CCC(=C(C#N)c2ccc(Cl)cc2)CC1` [Example 6, 2-(4-Chlorophenyl)-2-(1-((3,5-diethyl-1H-pyrazol-4-yl)sulfonyl)piperidin-4-ylidene)acetonitrile], for which the IC50 amounted to 50 nM.

On to `Cc1c(S(=O)(=O)N2CCC(=C(C#N)c3ccc(Cl)cc3)CC2)c(C(F)(F)F)nn1C` [Example 7, 2-(4-Chlorophenyl)-2-(1-((1,5-dimethyl-3-(trifluoromethyl)-1H-pyrazol-4-yl)sulfonyl)piperidin-4-ylidene)acetonitrile], for which the IC50 is 210 nM.

Regarding `Cc1nn(C)c(C)c1S(=O)(=O)N1CCC(=C(C#N)c2c(F)cccc2F)CC1` [Example 8, 2-(2,6-Difluorophenyl)-2-(1-((1,3,5-trimethyl-1H-pyrazol-4-yl)sulfonyl)piperidin-4-ylidene)acetonitrile], the IC50 worked out at 5430 nM.

On to `Cc1n[nH]c(C)c1S(=O)(=O)N1CCC(=C(C#N)c2ccc(OC(F)(F)F)cc2)CC1` [Example 9], for which the IC50 is 150 nM.

As for `Cc1n[nH]c(C)c1S(=O)(=O)N1CC/C(=C(\C#N)c2ccc(Cl)cc2)C(C)C1` (stereo not shown) [Example 10, 2-(4-Chlorophenyl)-2-(1-((3,5-dimethyl-1H-pyrazol-4-yl)sulfonyl)-3-methylpiperidin-4-ylidene) acetonitrile], the IC50 amounted to 470 nM.

For the compound `Cc1n[nH]c(C)c1S(=O)(=O)N1CCC(=Cc2ccc(Cl)cc2F)CC1` [Example 11, 4-(4-Chloro-2-fluorobenzylidene)-1-((3,5-dimethyl-1H-pyrazol-4-yl)sulfonyl)piperidine], the IC50 stood at 600 nM.

With `Cc1nn(C)c(C)c1S(=O)(=O)N1CCC(=Cc2ccc(Cl)cc2F)CC1` [Example 12, 4-(4-Chloro-2-fluorobenzylidene)-1-((1,3,5-trimethyl-1H-pyrazol-4-yl)sulfonyl)piperidine], the half-maximal inhibitory concentration (IC50) worked out at 550 nM.

On to `CC(=C1CCN(S(=O)(=O)c2c(C)n[nH]c2C)CC1)c1ccc(Cl)cc1` [Example 13], for which the IC50 was 760 nM.

Take `Cc1n[nH]c(C)c1S(=O)(=O)N1CCC(=Cc2ccc(Cl)cc2)CC1` [Example 14, 4-(4-Chlorobenzylidene)-1-((3,5-dimethyl-1H-pyrazol-4-yl)sulfonyl)piperidine]: the IC50 was 760 nM.

`Cc1nn(C)c(C)c1S(=O)(=O)N1CCC(=C(C#N)c2ccc(Cl)cc2)CC1` [Example 15, 2-(4-Chlorophenyl)-2-(1-((1,3,5-trimethyl-1H-pyrazol-4-yl)sulfonyl)piperidin-4-ylidene)acetonitrile]: the IC50 came out at 40 nM.

On to `Cc1n[nH]c(C)c1S(=O)(=O)N1CCC(=C(F)c2ccc(Cl)cc2)CC1` [Example 16, 4-((4-Chlorophenyl)fluoromethylene)-1-((3,5-dimethyl-1H-pyrazol-4-yl)sulfonyl)piperidine], for which the IC50 is 160 nM.

Consider `Cc1n[nH]c(C)c1S(=O)(=O)N1CCC(=C(F)c2ccc(F)c(Cl)c2)CC1` [Example 17, 4-((3-Chloro-4-fluorophenyl)fluoromethylene)-1-((3,5-dimethyl-1H-pyrazol-4-yl)sulfonyl) piperidine], for which the IC50 turned out to be 1880 nM.

As for `Cc1n[nH]c(C)c1S(=O)(=O)N1CCC(=C(F)c2ccc(Cl)cc2Cl)CC1` [Example 18, 4-((2,4-Dichlorophenyl)fluoromethylene)-1-((3,5-dimethyl-1H-pyrazol-4-yl)sulfonyl)piperidine], the IC50 came to 260 nM.

As to `Cc1n[nH]c(C)c1S(=O)(=O)N1CCC(=C(F)c2ccc(Cl)c(Cl)c2)CC1` [Example 19, 4-((3,4-Dichlorophenyl)fluoromethylene)-1-((3,5-dimethyl-1H-pyrazol-4-yl)sulfonyl)piperidine], the IC50 came to 520 nM.

With `Cc1n[nH]c(C)c1S(=O)(=O)N1CCC(=C(F)c2ccc(Cl)c(F)c2)CC1` [Example 20, 4-((4-Chloro-3-fluorophenyl)fluoromethylene)-1-((3,5-dimethyl-1H-pyrazol-4-yl)sulfonyl)piperidine], the IC50 turned out to be 190 nM.

With `Cc1n[nH]c(C)c1S(=O)(=O)N1CCC(=C(F)c2ccc(Cl)cc2F)CC1` [Example 21, 4-((4-Chloro-2-fluorophenyl)fluoromethylene)-1-((3,5-dimethyl-1H-pyrazol-4-yl)sulfonyl)piperidine], the IC50 was 400 nM.

In the case of `Cc1n[nH]c(C)c1S(=O)(=O)N1CCC(=C(F)c2cnc3ccccc3c2)CC1` [Example 23], the IC50 worked out at 60 nM.

As a reminder, the IC50 is the midpoint of a concentration-inhibition curve.
